The results in this text go back to patent US5919668A, “Non-reducing saccharide and its production and use” (Kabushiki Kaisha Hayashibara Seibutsu Kagaku Kenkyujo, priority 1994, dated 1999).

In data set [1] the test system is acetone-pulverized rat small intestine enzyme. In words: Degradation by acetone-pulverized rat small intestine enzyme. It counts as biochemical. The following applies: for Glucose in degradation product by acetone-powdered rat small intestine enzyme / Others in degradation product by acetone-powdered rat small intestine enzyme / Trehalose in degradation product by acetone-powdered rat small intestine enzyme: pH6.0, 37° C., 18 hours. The protocol:
(§1) The non-reducing saccharide preparations PI, PII, PIII, PIV and PV as substrates prepared in Experiment 4 were subjected to pig pancreas alpha-amylase, rice alpha-glucosidase and acetone-pulverized rat small intestine enzyme, all of which were products of Sigma Chemical Co., St Louis, Mo., USA, and the degradation products were analyzed on high-performance liquid chromatography for saccharide composition. The reaction by alpha-amylase was carried out by dissolving 10 mg of either substrate in 1 ml of 50 mM phosphate buffer (pH6.9), adding thereto one unit of alpha-amylase and incubating at 37° C. for 18 hours. The reaction by alpha-glucosidase was conducted similarly as in the case of alpha-amylase except that 50 mM acetate buffer (pH4.0) was used. In the case of acetone-pulverized rat small intestine enzyme, the reaction was conducted similarly as in the case of alpha-amylase except that 50 mM maleic acid buffer (pH6.0) was used.

Data set [2] deals with pig pancreas alpha-amylase. In words: Degradation by pig pancreas alpha-amylase. It counts as biochemical. As to conditions: for G1 (glucose) in degradation product by alpha-amylase / G2 (maltose) in degradation product by alpha-amylase / G3 (maltotriose) in degradation product by alpha-amylase / PI in degradation product by alpha-amylase / PII in degradation product by alpha-amylase: pH6.9, 37° C., 18 hours. The protocol:
as §1

For data set [3], the system named is rice alpha-glucosidase. Put plainly: Degradation by rice alpha-glucosidase. It counts as biochemical. The following applies: for Glucose in degradation product by alpha-glucosidase / Others in degradation product by alpha-glucosidase / Trehalose in degradation product by alpha-glucosidase: pH4.0, 37° C., 18 hours. As for the experimental part:
as §1

Data set [4] concerns glucoamylase. In words: Enzymatic hydrolysis by glucoamylase. It counts as biochemical. The following applies: for Molar ratio (glucose/trehalose): degradation product by glucoamylase; for Glucose in degradation product by glucoamylase / Trehalose in degradation product by glucoamylase: pH4.5, 40° C., 6 hours. The protocol:
Fifty milligrams of the non-reducing saccharide preparation PI, PII, PIII, PIV or PV prepared in Experiment 4 was dissolved in 1 ml of 50 mM acetate buffer (pH4.5), added with one unit of the glucoamylase commercialized by Seikagaku Corp., Tokyo, Japan, incubated at 40° C. for 6 hours for enzymatic hydrolysis and analyzed for degradation products on high-performance liquid chromatography, thus detecting glucose and trehalose as sole products. The noted glucose contents, trehalose contents and their molar ratios were as shown in Table 5.

The test system of data set [5] is pig kidney trehalase. In words: Degradation by pig kidney trehalase. It counts as biochemical. The following applies: trehalose, or trehalose formed from PI-PV; pH5.7, 37° C., 18 hours for the latter. As for the experimental part: In order to purify trehalose from respective reaction products, they were decolored, deionized, concentrated and subjected to column fractionation on a strongly-acidic cation exchange of sodium form "XT-1016", followed by recovering high-purity fractions with trehalose contents of 97% or higher. The fractions were then concentrated to about 65% and allowed to standing at 25° C. for 2 days to crystallize out crystalline trehalose hydrate which was then separated and dried in vacuo to obtain a high-purity preparation with a trehalose content of 99% or higher. The yields against respective starting substrates on dry solid basis were as follows: from glycosyl trehalose, 9.5%; from maltosyl trehalose, 14.9%; from maltotriosyl trehalose, 16.0%; from maltotetraosyl trehalose, 18.5%; and from maltopentaosyl trehalose, 17.7%. […] As evident from the above results, the saccharides formed by subjecting alpha-glycosyl trehaloses to the trehalose-releasing enzyme were identified to be trehalose.

Data set [6] addresses T1, trehalose-releasing enzyme (Rhizobium sp. M-11, UniProt Q53238).
T1 construct: M-11, about 58-68 kDa
T1 sequence (Q53238 1-596): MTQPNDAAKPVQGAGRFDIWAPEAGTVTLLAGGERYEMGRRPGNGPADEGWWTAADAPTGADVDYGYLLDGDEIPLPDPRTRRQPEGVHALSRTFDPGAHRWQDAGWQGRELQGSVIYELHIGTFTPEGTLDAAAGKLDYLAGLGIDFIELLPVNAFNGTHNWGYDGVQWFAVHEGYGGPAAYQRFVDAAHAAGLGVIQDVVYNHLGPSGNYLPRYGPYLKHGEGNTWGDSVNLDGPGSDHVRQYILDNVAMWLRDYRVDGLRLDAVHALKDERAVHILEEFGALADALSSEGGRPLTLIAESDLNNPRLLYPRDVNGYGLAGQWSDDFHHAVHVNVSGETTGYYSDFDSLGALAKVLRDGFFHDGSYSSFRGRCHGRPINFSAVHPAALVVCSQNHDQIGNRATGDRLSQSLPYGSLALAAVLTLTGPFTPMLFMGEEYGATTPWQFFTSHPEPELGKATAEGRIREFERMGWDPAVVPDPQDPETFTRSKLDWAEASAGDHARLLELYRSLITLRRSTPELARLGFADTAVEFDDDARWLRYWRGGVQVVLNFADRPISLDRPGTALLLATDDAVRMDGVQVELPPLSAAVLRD
It is filed as biochemical, Rhizobium species M-11. As to conditions: for Composition: trehalose formed / Composition: reducing saccharide formed: 20% substrate, 2 units/g, 40° C., pH7.0, 48 hours; for Composition: reducing saccharide formed: glucose, maltose, maltotriose, maltotetraose or maltopentaose respectively; for Composition: residual substrate: trehalose-releasing enzyme, 48 h, pH 7. As for the experimental part:
Alpha-glycosyl trehaloses as substrates were prepared in accordance with the method described in Japanese Patent Application No. 349,216/93. More particularly, 20% aqueous solutions of maltotriose, maltotetraose, maltopentaose, maltohexaose or maltoheptaose as reducing partial starch hydrolysate were added with 2 units/g substrate solid of a purified non-reducing saccharide-forming enzyme obtained by the method in […], reacted at 40° C. and pH7.0 for 48 hours, heated for inactivation, filtered, deionized, concentrated in conventional manner and applied to ion exchange column chromatography on a strongly-acidic cation exchange "XT-1016" in sodium form. The ion exchange resin was packed in 3 jacketed-stainless steel columns, inner diameter of 2.0 cm, length of 1 m, and the columns were cascaded, loaded with 5 v/v % reaction saccharide liquid against the resin and injected with 55° C. water at SV0.13 for fractionation while keeping the temperature inside the columns at 55° C., thus obtaining high-purity preparations of non-reducing saccharides with glucose polymerization degrees of 3 or higher.
20% Aqueous solutions of these five types of non-reducing saccharides or alpha-glycosyl trehaloses were prepared, added with 2 units/g substrate solid of the purified trehalose-releasing enzyme obtained in Experiment 15, reacted at 40° C. and pH7.0 for 48 hours, deionized and subjected to high-performance liquid chromatography on "WAKO BEADS WB-T-330" for analysis of reaction products. As control, maltotriose, maltotetraose, maltopentaose, maltohexaose and maltoheptaose were subjected to the purified trehalose-releasing enzyme similarly as above and then analyzed on high-performance liquid chromatography.

Data set [7] concerns beta-amylase. In words: Degradation by beta-amylase. It is filed as biochemical. From the text: Considering the reaction characteristics of glucoamylase, these saccharides very likely bear structures where glucose molecule(s) is bound to trehalose molecule via alpha1,4 or alpha-1,6 linkage: Saccharide PI is a non-reducing saccharide with a glucose polymerization degree of 3 where one glucose molecule is bound to one trehalose molecule; saccharide PII, another non-reducing saccharide with a glucose polymerization degree of 4 where two glucose molecules are bound to one trehalose molecule; saccharide PIII, still another non-reducing saccharide with a glucose polymerization degree of 5 where three glucose molecules are bound to one trehalose molecule; saccharide PIV, still another non-reducing saccharide with a glucose polymerization degree of 6 where four glucose molecules are bound to one trehalose molecule; and saccharide PV, still another non-reducing saccharide with a polymerization degree of 7 where five glucose molecules are bound to one trehalose molecule.

Structures are written as SMILES.

As to `OC[C@H]1O[C@H](O[C@H]2O[C@H](CO)[C@@H](O[C@H]3O[C@H](CO)[C@@H](O[C@H]4O[C@H](CO)[C@@H](O[C@H]5O[C@H](CO)[C@@H](O)[C@H](O)[C@H]5O)[C@H](O)[C@H]4O)[C@H](O)[C@H]3O)[C@H](O)[C@H]2O)[C@H](O)[C@@H](O)[C@@H]1O` [PIII, alpha-maltotriosyl trehalose], in data set [1], the “Degradation by acetone-pulverized rat small intestine enzyme (in words)” value is on record as “degradable”, the “Glucose in degradation product by acetone-powdered rat small intestine enzyme” value is listed as 62.0%, the “Others in degradation product by acetone-powdered rat small intestine enzyme” value turned out to be 0.4% and the “Trehalose in degradation product by acetone-powdered rat small intestine enzyme” value turned out to be 37.6%. In data set [2], the “Degradation by alpha-amylase (in words)” value is listed as “degraded by alpha-amylase into smaller oligosaccharides”, the “G1 (glucose) in degradation product by alpha-amylase” value was 1.2%, the “G2 (maltose) in degradation product by alpha-amylase” value was 33.0% and the “G3 (maltotriose) in degradation product by alpha-amylase” value is on record as 0%. In addition, in data set [2], the “PI in degradation product by alpha-amylase” value was found to be 61.0% and the “PII in degradation product by alpha-amylase” value is 4.8%. Further, in data set [3], the “Degradation by alpha-glucosidase (in words)” value is “degradable”, the “Glucose in degradation product by alpha-glucosidase” value was 61.7%, the “Others in degradation product by alpha-glucosidase” value was 0.2% and the “Trehalose in degradation product by alpha-glucosidase” value came to 38.1%. Moreover, in data set [4], the “Degradation by glucoamylase (in words)” value is “three glucose molecules and one trehalose molecule”; the “Molar ratio (glucose/trehalose)” value came to 3.02; the “Glucose in degradation product by glucoamylase” value worked out at 61.4%; the “Trehalose in degradation product by glucoamylase” value was determined as 38.6%. The “Degradation by pig kidney trehalase (in words)” value in data set [5] is listed as “degradable into glucose by the trehalase”. Also, in data set [6], the “Composition: trehalose formed” value was 39.5%, the “Composition: reducing saccharide formed” value was determined as 60.0% and the “Composition: residual substrate” value is 0.5%. The “Degradation by beta-amylase (in words)” value in data set [7] was “degraded into one maltose molecule and one saccharide PI molecule”.

In the case of `OC[C@H]1O[C@H](O[C@H]2O[C@H](CO)[C@@H](O[C@H]3O[C@H](CO)[C@@H](O[C@H]4O[C@H](CO)[C@@H](O[C@H]5O[C@H](CO)[C@@H](O[C@H]6O[C@H](CO)[C@@H](O)[C@H](O)[C@H]6O)[C@H](O)[C@H]5O)[C@H](O)[C@H]4O)[C@H](O)[C@H]3O)[C@H](O)[C@H]2O)[C@H](O)[C@@H](O)[C@@H]1O` [PIV, alpha-maltotetraosyl trehalose], in data set [1], the “Degradation by acetone-pulverized rat small intestine enzyme (in words)” value is “degradable”, the “Glucose in degradation product by acetone-powdered rat small intestine enzyme” value is recorded as 68.8%, the “Others in degradation product by acetone-powdered rat small intestine enzyme” value is 0.4% and the “Trehalose in degradation product by acetone-powdered rat small intestine enzyme” value was 30.8%. In addition, in data set [2], the “Degradation by alpha-amylase (in words)” value is listed as “degraded by alpha-amylase into smaller oligosaccharides”, the “G1 (glucose) in degradation product by alpha-amylase” value stood at 1.6%, the “G2 (maltose) in degradation product by alpha-amylase” value worked out at 7.5% and the “G3 (maltotriose) in degradation product by alpha-amylase” value is 40.4%. In addition, in data set [2], the “PI in degradation product by alpha-amylase” value stood at 47.2% and the “PII in degradation product by alpha-amylase” value was found to be 3.3%. In addition, in data set [3], the “Degradation by alpha-glucosidase (in words)” value is “degradable”, the “Glucose in degradation product by alpha-glucosidase” value is given as 69.5%, the “Others in degradation product by alpha-glucosidase” value came out at 0.3% and the “Trehalose in degradation product by alpha-glucosidase” value is on record as 30.2%. For the same compound, in data set [4], the “Degradation by glucoamylase (in words)” value was “four glucose molecules and one trehalose molecule”; the “Molar ratio (glucose/trehalose)” value is listed as 4.09; the “Glucose in degradation product by glucoamylase” value amounted to 68.3%; the “Trehalose in degradation product by glucoamylase” value is reported as 31.7%. In data set [5], the “Degradation by pig kidney trehalase (in words)” value was “degradable into glucose by the trehalase”. Further, in data set [6], the “Composition: trehalose formed” value is listed as 34.2%, the “Composition: reducing saccharide formed” value is given as 65.5% and the “Composition: residual substrate” value was found to be 0.3%. The “Degradation by beta-amylase (in words)” value in data set [7] is “one maltose molecules and one saccharide PII molecule”.
